ChEMBL document CHEMBL2034833, “Synthesis of chalcone-amidobenzothiazole conjugates as antimitotic and apoptotic inducing agents” (Bioorg Med Chem, 2012)
Active and inactive are the calls of the source. The calls are words filed in the database; no cut-off is given here.

Key:
786-0 = assay: Growth inhibition of human 786-0 cells after 48 hrs by sulforhodamine B assay; format: functional; details: 786-0, 48 h
A498 = assay: Growth inhibition of human A498 cells after 48 hrs by sulforhodamine B assay; format: functional; details: A498, 48 h
ACHN [1] = assay: Growth inhibition of human ACHN cells after 48 hrs by sulforhodamine B assay; format: functional
CAKI-1 = assay: Growth inhibition of human CAKI-1 cells after 48 hrs by sulforhodamine B assay; format: functional; details: CAKI-1, 48 h
RXF 393 = assay: Growth inhibition of human RXF393 cells after 48 hrs by sulforhodamine B assay; format: functional; details: RXF 393, 48 h
SN12C = assay: Growth inhibition of human SN12C cells after 48 hrs by sulforhodamine B assay; format: functional
TK-10 = assay: Growth inhibition of human TK10 cells after 48 hrs by sulforhodamine B assay; format: functional; details: TK-10, 48 h
UO-31 = assay: Growth inhibition of human UO31 cells after 48 hrs by sulforhodamine B assay; format: functional; details: UO-31, 48 h
A549 [2] = assay: Cell cycle arrest in human A549 cells assessed as cell accumulation at subG1 phase at 2 uM after 48 hrs by propidium iodide staining based flow cytometry (reference value: […]); format: functional
A549 [3] = assay: Cell cycle arrest in human A549 cells assessed as cell accumulation at subG1 phase at 4 uM after 48 hrs by propidium iodide staining based flow cytometry (reference value: […]); format: functional
A549 [4] = assay: Cell cycle arrest in human A549 cells assessed as cell accumulation at G0/G1 phase at 2 uM after 48 hrs by propidium iodide staining based flow cytometry (reference value: 70.15%); format: functional
A549 [5] = assay: Cell cycle arrest in human A549 cells assessed as cell accumulation at G0/G1 phase at 4 uM after 48 hrs by propidium iodide staining based flow cytometry (reference value: 70.15%); format: functional
A549 [6] = assay: Cell cycle arrest in human A549 cells assessed as cell accumulation at S phase at 4 uM after 48 hrs by propidium iodide staining based flow cytometry (reference value: […]); format: functional
A549 [7] = assay: Cell cycle arrest in human A549 cells assessed as cell accumulation at G2/M phase at 2 uM after 48 hrs by propidium iodide staining based flow cytometry (reference value: 23.75%); format: functional
A549 [8] = assay: Cell cycle arrest in human A549 cells assessed as cell accumulation at G2/M phase at 4 uM after 48 hrs by propidium iodide staining based flow cytometry (reference value: 23.75%); format: functional
[9] = Inhibition of tubulin polymerization at 3 uM after 1 hr by fluorescence assay
[10] = Inhibition of tubulin polymerization after 1 hr by fluorescence assay
Tubulin (Homo sapiens) = Tubulin (Homo sapiens) (UniProt P68371+Q9H4B7+P0DPH7+P68366+Q13509+Q71U36+P04350+Q3ZCM7+P07437+P68363+Q9BQE3+Q6PEY2+Q13885+Q9BVA1+Q9BUF5); assay: Inhibition of tubulin polymerization in human A549 cells assessed as disrupted microtubule organization at 2 uM after 48 hrs by immunohistochemistry analysis; format: cell-based
A549 [11] = assay: Induction of apoptosis in human A549 cells assessed as increase in caspase3 activity using AFC-conjugated Ac-DEVD as substrate at 2 uM after 48 hrs by fluorescence assay relative to control; format: functional
A549 [12] = assay: Induction of apoptosis in human A549 cells assessed as necrotic cells at 2 uM after 48 hrs by annexin-V FITC/propidium iodide staining based FACS analysis; format: functional
A549 [13] = assay: Growth inhibition of human A549 cells after 48 hrs by sulforhodamine B assay; format: functional; details: A549, 48 h
A549 [14] = assay: Induction of apoptosis in human A549 cells assessed as late apoptotic cells at 2 uM after 48 hrs by annexin-V FITC/propidium iodide staining based FACS analysis; format: functional
A549 [15] = assay: Induction of apoptosis in human A549 cells assessed as viable cells at 2 uM after 48 hrs by annexin-V FITC/propidium iodide staining based FACS analysis; format: functional; details: A549, 48 h, read-out: Activity
A549 [16] = assay: Induction of apoptosis in human A549 cells assessed as early apoptotic cells at 2 uM after 48 hrs by annexin-V FITC/propidium iodide staining based FACS analysis; format: functional
A-375 = assay: Cytotoxicity against human A375 cells after 48 hrs by MTT assay; format: functional, cell-based; details: A-375, 48 h
HT-29 = assay: Cytotoxicity against human HT-29 cells after 48 hrs by MTT assay; format: functional, cell-based; details: HT-29, 48 h, read-out: IC50
ACHN [17] = assay: Cytotoxicity against human ACHN cells after 48 hrs by MTT assay; format: functional, cell-based
CCRF-CEM = assay: Growth inhibition of human CCRF-CEM cells after 48 hrs by sulforhodamine B assay; format: functional
K562 = assay: Growth inhibition of human K562 cells after 48 hrs by sulforhodamine B assay; format: functional; details: K562, 48 h
MOLT-4 = assay: Growth inhibition of human MOLT4 cells after 48 hrs by sulforhodamine B assay; format: functional; details: MOLT-4, 48 h
RPMI-8226 = assay: Growth inhibition of human RPMI8226 cells after 48 hrs by sulforhodamine B assay; format: functional; details: RPMI-8226, 48 h
SR = assay: Growth inhibition of human SR cells after 48 hrs by sulforhodamine B assay; format: functional
EKVX = assay: Growth inhibition of human EKVX cells after 48 hrs by sulforhodamine B assay; format: functional
HOP-62 = assay: Growth inhibition of human HOP62 cells after 48 hrs by sulforhodamine B assay; format: functional; details: HOP-62, 48 h
HOP-92 = assay: Growth inhibition of human HOP92 cells after 48 hrs by sulforhodamine B assay; format: functional; details: HOP-92, 48 h
NCI-H226 = assay: Growth inhibition of human NCI-H226 cells after 48 hrs by sulforhodamine B assay; format: functional; details: NCI-H226, 48 h
NCI-H23 = assay: Growth inhibition of human NCI-H23 cells after 48 hrs by sulforhodamine B assay; format: functional; details: NCI-H23, 48 h
NCI-H322M = assay: Growth inhibition of human NCI-H322M cells after 48 hrs by sulforhodamine B assay; format: functional
NCI-H460 = assay: Growth inhibition of human NCI-H460 cells after 48 hrs by sulforhodamine B assay; format: functional; details: NCI-H460, 48 h

GI50 (786-0): 2.26 µM
GI50 (ACHN [1]): 1.62 µM
inhibition [9]: 63.1%
IC50 [10]: 5.2 µM
inhibition (Tubulin (Homo sapiens)): Active
GI50 (A549 [13]): 1.99 µM
GI50 (CCRF-CEM): 2.5 µM
GI50 (K562): 0.43 µM
GI50 (MOLT-4): 2.89 µM
GI50 (RPMI-8226): 2.02 µM
GI50 (NCI-H226): 3.35 µM
GI50 (NCI-H23): 2.15 µM
GI50 (NCI-H322M): 2.77 µM
GI50 (NCI-H460): 2.43 µM
Compound: COc1ccc(/C=C/C(=O)c2cc(OC)c(OC)c(OC)c2)cc1OCC(=O)Nc1nc2ccc(OC(F)(F)F)cc2s1
GI50 (A498): 7.4 µM
GI50 (CAKI-1): 2.2 µM
GI50 (RXF 393): 1.58 µM
GI50 (SN12C): 1.74 µM
GI50 (TK-10): 2.08 µM
GI50 (UO-31): 1.61 µM
Activity (A549 [2]): 4.5%
Activity (A549 [3]): 3.21%
Activity (A549 [4]): 8.51%
Activity (A549 [5]): 8.68%
Activity (A549 [6]): 4.95%
Activity (A549 [7]): 80.73%
Activity (A549 [8]): 83.21%
fold change (FC) (A549 [11]): 4
Activity (A549 [12]): 6.2%
Activity (A549 [14]): 74.9%
viability at 2 µM (A549 [15]): 30.4%
Activity (A549 [16]): 1.3%
IC50 (A-375): 2.4 µM
IC50 (HT-29): 1.1 µM
IC50 (ACHN [17]): 1.73 µM
GI50 (SR): 0.39 µM
GI50 (EKVX): 5.11 µM
GI50 (HOP-62): 2.12 µM
GI50 (HOP-92): 2.14 µM
